Test results as given in the NIST ThermoML archive (doi:10.1021/je034265f).
Numbers after ± are expanded uncertainties.

Test: activity coefficient (dimensionless); of the first substance listed, at infinite dilution; xn = mol fraction of the nth substance listed
Settings: Liquid, x1 = 0

In the case of `C=CC=C` [1,3-butadiene] + CCC(C)O, the activity coefficient (249.99 K) is reported as 3.5 ± 0.1, the activity coefficient (270 K) is reported as 3.4 ± 0.1 and the activity coefficient (290 K) is reported as 3.2 ± 0.1. It also gave an activity coefficient (310 K) of 3 ± 0.1 and an activity coefficient (330 K) of 2.8 ± 0.1.

Work on `C=CC=C` [1,3-butadiene] + CCCCO yielded an activity coefficient (250.01 K) of 3 ± 0.1, an activity coefficient (270.04 K) of 2.9 ± 0.1 and an activity coefficient (290.01 K) of 2.9 ± 0.1. The activity coefficient (310.01 K) was 2.9 ± 0.1 and the activity coefficient (330 K) was 2.8 ± 0.1.

Work on `C=CCC` [1-butene] + CCC(C)O yielded an activity coefficient (249.97 K) of 3.7 ± 0.1, an activity coefficient (269.99 K) of 3.6 ± 0.1 and an activity coefficient (290 K) of 3.5 ± 0.1. For the same molecule, the activity coefficient (310 K) was 3.3 ± 0.1 and the activity coefficient (330 K) was 3.1 ± 0.1.

Work on `C=CCC` [1-butene] + CCCCO yielded an activity coefficient (250.01 K) of 3.5 ± 0.1, an activity coefficient (270 K) of 3.4 ± 0.1 and an activity coefficient (290.01 K) of 3.4 ± 0.1. It also gave an activity coefficient (310 K) of 3.3 ± 0.1 and an activity coefficient (330 K) of 3.2 ± 0.1.

Work on `CC(C)C` [2-methylpropane] + CCC(C)O yielded an activity coefficient (249.97 K) of 4.4 ± 0.1, an activity coefficient (270 K) of 4.3 ± 0.1 and an activity coefficient (290 K) of 4.2 ± 0.1. The activity coefficient (310 K) was 4.1 ± 0.1 and the activity coefficient (330 K) was 3.8 ± 0.1.

For `CC(C)C` [2-methylpropane] + CCCCO, the activity coefficient (250.01 K) was 4.4 ± 0.1, the activity coefficient (270.04 K) was 4.4 ± 0.1 and the activity coefficient (290.01 K) was 4.3 ± 0.1. For the same molecule, the activity coefficient (310.01 K) was 4.3 ± 0.1 and the activity coefficient (330 K) was 4.1 ± 0.1.

`C=C(C)C` [2-methylpropene] + CCC(C)O showed an activity coefficient (249.99 K) of 3.7 ± 0.1, an activity coefficient (270 K) of 3.5 ± 0.1 and an activity coefficient (290 K) of 3.4 ± 0.1. The activity coefficient (310 K) was 3.2 ± 0.1 and the activity coefficient (330 K) was 3 ± 0.1.

For `C=C(C)C` [2-methylpropene] + CCCCO, the activity coefficient (250.01 K) was 3.4 ± 0.1, the activity coefficient (270.04 K) was 3.4 ± 0.1 and the activity coefficient (290.01 K) was 3.4 ± 0.1. It also gave an activity coefficient (310.01 K) of 3.3 ± 0.1 and an activity coefficient (330 K) of 3.2 ± 0.1.

`C/C=C/C` [(E)-2-butene] + CCC(C)O gave an activity coefficient (249.97 K) of 3.7 ± 0.1, an activity coefficient (269.99 K) of 3.6 ± 0.1 and an activity coefficient (290 K) of 3.5 ± 0.1. It also gave an activity coefficient (310 K) of 3.3 ± 0.1 and an activity coefficient (330 K) of 3.1 ± 0.1.

With `C/C=C/C` [(E)-2-butene] + CCCCO the activity coefficient (250.01 K) was 3.4 ± 0.1, the activity coefficient (270 K) was 3.4 ± 0.1 and the activity coefficient (290.01 K) was 3.4 ± 0.1. For the same molecule, the activity coefficient (310 K) was 3.3 ± 0.1 and the activity coefficient (330 K) was 3.3 ± 0.1.

`CCCC` [butane] + CCC(C)O gave an activity coefficient (249.96 K) of 4.2 ± 0.1, an activity coefficient (270 K) of 4.1 ± 0.1 and an activity coefficient (290 K) of 4 ± 0.1. The activity coefficient (310 K) was 3.9 ± 0.1 and the activity coefficient (330 K) was 3.6 ± 0.1.

`CCCC` [butane] + CCCCO gave an activity coefficient (250.01 K) of 4.1 ± 0.1, an activity coefficient (270.04 K) of 4.1 ± 0.1 and an activity coefficient (290.01 K) of 4.1 ± 0.1. For the same molecule, the activity coefficient (310.01 K) was 4 ± 0.1 and the activity coefficient (330 K) was 3.9 ± 0.1.

In the case of `CCC` [propane] + CCC(C)O, the activity coefficient (249.97 K) is reported as 3.6 ± 0.1, the activity coefficient (269.99 K) is reported as 3.5 ± 0.1 and the activity coefficient (290 K) is reported as 3.5 ± 0.1. The activity coefficient (310 K) was 3.5 ± 0.1 and the activity coefficient (330 K) was 3.3 ± 0.1.

In the case of `CCC` [propane] + CCCCO, the activity coefficient (250.01 K) is reported as 3.6 ± 0.1, the activity coefficient (270 K) is reported as 3.6 ± 0.1 and the activity coefficient (290.01 K) is reported as 3.6 ± 0.1. The activity coefficient (310 K) was 3.6 ± 0.1 and the activity coefficient (330 K) was 3.6 ± 0.1.

With `C=CC` [propene] + CCC(C)O the activity coefficient (249.97 K) was 3.1 ± 0.1, the activity coefficient (269.99 K) was 3.1 ± 0.1 and the activity coefficient (290 K) was 3.1 ± 0.1. The activity coefficient (310 K) was 3 ± 0.1 and the activity coefficient (330 K) was 2.8 ± 0.1.

For `C=CC` [propene] + CCCCO, the activity coefficient (249.99 K) was 3 ± 0.1, the activity coefficient (270 K) was 3 ± 0.1 and the activity coefficient (290.01 K) was 3 ± 0.1. For the same molecule, the activity coefficient (310 K) was 3 ± 0.1 and the activity coefficient (330 K) was 3 ± 0.1.
